Entries after “also recorded” stand apart in the source; their conditions may differ.
Tests used:
canine atopic dermatitis [1] = conditions: 7 out of 37 dogs with canine atopic dermatitis; cited from earlier work
canine atopic dermatitis [2] = assay: CADLI index (skin lesion score) in dogs with atopic dermatitis before and after drug administration; format: in vivo, dog; conditions: for effect of improving clinical symptoms of canine atopic dermatitis: 127 dogs, single agents 30 days each, combination up to 60 days, compared with before administration; for CADLI score, average value and standard error / CADLI score, average value (standard error): 30-days administration; for CADLI score, average value (standard error): all 127 dogs, oral with meals every 12 hours (RXM 5 mg/kg, PTX 25 mg/kg), prior to administration 33.17
Source text: The CADLI index used in the present specification is an index representing the skin condition of atopic dermatitis, and the skin condition of the five parts of the body is scored by estimating erythema, scratch, erosion, alopecia, lichenification, hyperpigmentation (Non-Patent Document 14). Therefore, the highest point is 50 points, and closer to 50 points the skin inflammation is becoming more severe. […] This figure decreased to 12.04±1.11 after 30 days of dosing and 6.51±1.51 after 60 days, and it was remarkable for all 127 cases (100%). To be able to obtain remission of symptoms with high probability. […] Target animals: For five years from 2010 to 2015, at Gotofu Animal Hospital (1-1-3, […], Fukuoka City, Fukuoka Prefecture), among dogs diagnosed as atopic dermatitis of dogs by diagnostic criteria announced by Dr. Favrot in 2010 (non patent literature 15), the examinations were conducted for 127 dogs for which the consent and cooperation of treatment were obtained from the family and whose sum of SQK were larger than the sum of SLK of the 5 parts, whose SLK and SQK value were calculated for 5 parts of the neck, the fossa, the back, the forearm, and the lower leg. As content of implementation items, in all 127 cases, roxithromycin was administered as a single agent for 30 days, and pentoxifylline was administered as a single agent for the next 30 days. During the last 60 days, roxithromycin and pentoxifylline were administered in combination. The constituent of the targeted dog type is as shown in (Table 1). The constituent of the gender was 57 males (35 castrated with 35 male), 70 females (35 contraceptives already) (Table 1). Methods: In all 127 cases, 5 mg/kg of roxithromycin alone was orally administered with meals every 12 hours for the first 30 days. For the next 30 days, pentoxifylline alone was orally administered at 25 mg/kg with meals every 12 hours. For the next 60 days, 5 mg/kg of roxithromycin and 25 mg/kg of pentoxifylline were orally administered simultaneously with meals every 12 hours. After that, administration of roxithromycin and pentoxifylline was discontinued and a follow-up study was conducted for 30 days. For all treatment periods, meals were allowed to feed freely without restriction. Also, shampoo was carried out at home once a week. Local corticosteroid therapy was performed at any time as long as there was a strong itching lesion After measurement, roxithromycin (RXM) was administered as a single agent for 30 days. After administration, CADLI index was measured to ascertain the skin condition, and it was judged whether roxithromycin has the ability to improve atopic dermatitis by comparing the change of numerical values before and after medication. Similarly, for pentoxifylline (PTX), it was estimated whether pentoxifylline has the effect of improving canine atopic dermatitis by measuring the CADLI index as an index and comparing the values before and after administration. Finally, for administration of roxithromycin and pentoxifylline in combination, the CADLI index was measured on the 30th and 60th days of administration, respectively, and the effect of the drug was evaluated by comparing the values.

[3] = breed West Highland white terrier

CC(=O)CCCCn1c(=O)c2c(ncn2C)n(C)c1=O [PTX, Pentoxifylline]
patients in which single administration of pentoxifylline was effective (canine atopic dermatitis [1]): 19% | effect of improving clinical symptoms of canine atopic dermatitis (canine atopic dermatitis [2]): no therapeutic effect to improve atopic dermatitis in dogs; also recorded: unable to confirm the effect of improving the symptoms of atopic dermatitis in dogs | CADLI score, average value and standard error (canine atopic dermatitis [2]; age 4 years-6 years of age): 32.38 ± 3.01 | CADLI score, average value and standard error (canine atopic dermatitis [2]; age 7 years-9 years of age): 32.95 ± 3.47 | CADLI score, average value and standard error (canine atopic dermatitis [2]; age 10 years-12 years of age): 34.61 ± 2.84 | CADLI score, average value and standard error (canine atopic dermatitis [2]; age Over 13 years of age): 31.68 ± 3.93 | CADLI score, average value and standard error (canine atopic dermatitis [2]; age Under 3 years of age): 33.94 ± 4.74 | CADLI score, average value (standard error) (canine atopic dermatitis [2]): 33.09 | CADLI score, average value (standard error) (canine atopic dermatitis [2]; listed as pentoxifylline): 33.09±1.52 | CADLI score, average value and standard error (canine atopic dermatitis [2]; breed Chihuahua): 31.00 ± 9.01 | CADLI score, average value and standard error (canine atopic dermatitis [2]; breed Miniature dachschund): 28.64 ± 4.11 | CADLI score, average value and standard error (canine atopic dermatitis [2]; breed Mongrel): 36.00 ± 6.08 | CADLI score, average value and standard error (canine atopic dermatitis [2]; breed Others): 35.26 ± 3.66 | CADLI score, average value and standard error (canine atopic dermatitis [2]; breed Pug): 35.60 ± 3.48 | CADLI score, average value and standard error (canine atopic dermatitis [2]; breed Shiba): 34.93 ± 4.45 | CADLI score, average value and standard error (canine atopic dermatitis [2]; breed Shih Tzu): 32.94 ± 3.09 | CADLI score, average value and standard error (canine atopic dermatitis [2]; breed Toy Poodle): 36.86 ± 5.42 | CADLI score, average value and standard error (canine atopic dermatitis [2]; breed Welsh Corgi): 31.50 ± 6.11 | CADLI score, average value and standard error (canine atopic dermatitis [2]; [3]): 34.40 ± 7.91 | CADLI score, average value and standard error (canine atopic dermatitis [2]; breed Yorkshire Terrier): 22.29 ± 7.94 | CADLI score, average value and standard error (canine atopic dermatitis [2]; sex Castrated male): 32.63 ± 2.87 | CADLI score, average value and standard error (canine atopic dermatitis [2]; sex Female): 32.43 ± 3.13 | CADLI score, average value and standard error (canine atopic dermatitis [2]; sex Male): 35.41 ± 3.40 | CADLI score, average value and standard error (canine atopic dermatitis [2]; sex Spayed female): 32.74 ± 2.98

CC[C@H]1OC(=O)[C@H](C)[C@@H](O[C@H]2C[C@@](C)(OC)[C@@H](O)[C@H](C)O2)[C@H](C)[C@@H](O[C@@H]2O[C@H](C)C[C@H](N(C)C)[C@H]2O)[C@](C)(O)C[C@@H](C)/C(=N\OCOCCOC)[C@H](C)[C@@H](O)[C@]1(C)O [RXM, Roxithromycin]
effect of improving clinical symptoms of canine atopic dermatitis (canine atopic dermatitis [2]): did not seem to have sufficient therapeutic effect to improve atopic dermatitis in dogs; also recorded: no effect of improving canine atopic dermatitis | CADLI score, average value and standard error (canine atopic dermatitis [2]; age 4 years-6 years of age): 32.75 ± 2.82 | CADLI score, average value and standard error (canine atopic dermatitis [2]; age 7 years-9 years of age): 33.55 ± 3.54 | CADLI score, average value and standard error (canine atopic dermatitis [2]; age 10 years-12 years of age): 35.18 ± 2.89 | CADLI score, average value and standard error (canine atopic dermatitis [2]; age Over 13 years of age): 32.32 ± 4.07 | CADLI score, average value and standard error (canine atopic dermatitis [2]; age Under 3 years of age): 34.72 ± 4.91 | CADLI score, average value (standard error) (canine atopic dermatitis [2]): 33.64 | CADLI score, average value (standard error) (canine atopic dermatitis [2]; listed as roxithromycin): 33.64±1.51 | CADLI score, average value and standard error (canine atopic dermatitis [2]; breed Chihuahua): 31.67 ± 9.18 | CADLI score, average value and standard error (canine atopic dermatitis [2]; breed Miniature dachschund): 29.00 ± 4.24 | CADLI score, average value and standard error (canine atopic dermatitis [2]; breed Mongrel): 36.57 ± 6.25 | CADLI score, average value and standard error (canine atopic dermatitis [2]; breed Others): 36.16 ± 3.50 | CADLI score, average value and standard error (canine atopic dermatitis [2]; breed Pug): 35.30 ± 3.63 | CADLI score, average value and standard error (canine atopic dermatitis [2]; breed Shiba): 35.60 ± 4.44 | CADLI score, average value and standard error (canine atopic dermatitis [2]; breed Shih Tzu): 33.39 ± 2.88 | CADLI score, average value and standard error (canine atopic dermatitis [2]; breed Toy Poodle): 37.57 ± 5.51 | CADLI score, average value and standard error (canine atopic dermatitis [2]; breed Welsh Corgi): 31.50 ± 6.98 | CADLI score, average value and standard error (canine atopic dermatitis [2]; [3]): 35.00 ± 8.08 | CADLI score, average value and standard error (canine atopic dermatitis [2]; breed Yorkshire Terrier): 23.00 ± 8.56 | CADLI score, average value and standard error (canine atopic dermatitis [2]; sex Castrated male): 33.23 ± 2.97 | CADLI score, average value and standard error (canine atopic dermatitis [2]; sex Female): 32.71 ± 2.96 | CADLI score, average value and standard error (canine atopic dermatitis [2]; sex Male): 36.41 ± 3.28 | CADLI score, average value and standard error (canine atopic dermatitis [2]; sex Spayed female): 33.23 ± 3.01

From patent US11045486B2, “Therapeutic method and therapeutic agent for atopic dermatitis in animals” (priority 2015, dated 2021)
